Test results taken from patent US10881623B2, “Compositions for the management of hyperglycemia and related conditions” (SAMI LABS LIMITED, priority 2017, dated 2021).

Key:
[1] = biological target: T1, α-glucosidase (Saccharomyces cerevisiae, UniProt P53341); test: α-glucosidase inhibition (paranitrophenyl-α-d-glucopyranoside substrate); format: biochemical; conditions: enzyme 0.15 U/ml, substrate 1.25 mM, absorbance 405 nm
T1 construct: purchased Sigma-Aldrich G5003
Method: For glucosidase inhibition, α-glucosidase (Code G5003; Sigma-Aldrich, St. Louis, Mo., USA) was dissolved in 67 mM potassium phosphate buffer, pH 6.8, containing 8 containing 0.2% Bovine Serum Albumin (Sigma-Aldrich) & 0.02% sodium azide (Sigma-Aldrich) which was used as enzyme source. Paranitrophenyl-α-d-glucopyranoside (Sigma-Aldrich) was used as substrate. Thymoquinone, thymohydroquinone and composition containing thymohydroquinone were weighed prepared at concentration of 63, 125, 250 and 500 μg/ml and were made up with equal volumes of distilled water. 50 μl of said composition was incubated for 5 min with 50 μl enzyme source (0.15 U/ml). After incubation, 50 μl of substrate (1.25 mM) was added and further incubated for 20 min at room temperature. Presubstrate and post-substrate addition, absorbance was measured at 405 nm on a microplate reader (BMG FLUOstar OPTIMA Microplate Reader). The increase in absorbance on substrate addition was obtained. Each test was performed three times and the mean absorption was used to calculate percentage α-glucosidase inhibition. Acarbose was used as positive control with various concentrations. The inhibitory activities of varying concentrations of said composition were expressed as 100 minus the absorbance difference (%) of the said composition relative to the absorbance change of the negative control (i.e., water used as the test solution). […]

[2] = system: Muscle cells (C2C12 myotubes); test: Glucose uptake (2-NBDG, flow cytometry) in differentiated C2C12 myotubes; format: cell-based; conditions: compared to thymoquinone; FIG. 2
Method: The skeletal muscle cell line C2C12 myoblasts (procured from ATCC) were maintained in DMEM supplemented with 10% Fetal Bovine Serum at 37° C. with 5% CO2. Twenty thousand cells per well were seeded in a 24 well plate. When the cells reached 80-90% confluence, differentiation was induced by replacing the growth medium with DMEM containing 1% horse serum. Experiments were performed in completely differentiated C2C12 myotubes after 4-5 days in differentiation medium. Cells were then treated with 0.5% BSA in low glucose media for 16 hours and washed with cold Krebs-Ringer phosphate buffer without glucose. Cells were then treated with different non cytotoxic concentrations of samples in low glucose DMEM media with or without insulin at a concentration of 0.1 μM for 30 minutes at 37° C. Cells were then washed with cold PBS and stained with 5 μM of a fluorescent D-glucose analog 2-[N-(7-nitrobenz-2-oxa-1,3-diazol-4-yl) amino]-2-deoxy-D-glucose (2-NBDG) for 15 minutes in dark followed by flow cytometric detection of fluorescence produced by the cells.

[3] = system: Adipocytes; test: Glucose uptake in adipocytes; format: cell-based; conditions: compared to thymoquinone; FIG. 2
[4] = DPPH radical scavenging assay; conditions: concentration reducing DPPH absorbance by 50%
Method: DPPH is a stable free radical in a methanolic solution with an absorbance at 520 nm. If the free radicals are scavenged by an anti oxidant molecule, the resulting solution appears yellow. The hydrogen atoms or electrons donation ability of the extracellular metabolite was measured by the bleaching of purple coloured DPPH methanol solution.
Thymoquinone, Thymohydroquinone and the composition comprising thymohydroquinone were prepared in varying concentrations. For the DPPH radical scavenging assay, 20 μL of test material was mixed with 180 μL of DPPH in methanol in a 96 well plate following the method as described earlier (Clarke et al., 2013). The plate was kept in the dark for 15 min, after which the absorbance of the solution was measured at 540 nm using a microplate reader (TECAN Ltd, Männedorf, Switzerland). Blanks (DMSO, methanol) and standard (Trolox solution in DMSO) were recorded simultaneously. The extracts were screened with variable concentrations to establish the inhibition concentration (IC50, the concentration reducing DPPH absorbance by 50%).
The free radical scavenging activity was calculated as follows,
Where, • B=Absorbance of reference solution (OD of DPPH) • C=Absorbance of reference solution, blank (OD of Methanol only) • S=Absorbance of test solution • […]

[5] = system: TNF-α; test: TNF-α secretion by LPS-stimulated THP-1 cells (ELISA); format: cell-based, human; conditions: for inhibition at 0.03 µg/mL / inhibition at 0.06 µg/mL / inhibition at 0.13 µg/mL: Homo sapiens, THP-1, LPS 0.1 μg/mL, 24 hour; for inhibition at 0.03 µg/mL: 0.03 μg/mL; for inhibition at 0.06 µg/mL: 0.06 μg/mL; for inhibition at 0.13 µg/mL: 0.13 μg/mL
Method: Cells: THP1-human monocytes purchased from American Type Culture Collection (ATCC, Manassas, Va.) and maintained as a monolayer culture in Rosewell park memorial institute Medium (RMPI Life technologies, CA, USA.) supplemented with 10% (v/v) heat-inactivated foetal bovine serum (FBS; GIBCO/Invitrogen, Carlsbad, Calif.), 100 units/mL penicillin and 100 μg/mL streptomycin (Life technologies) at 37° C. in a humidified 5% CO2 incubator.
Reagents and buffers: Lipopolysaccharide (LPS, Sigma chemicals, USA), Phosphate buffered saline, RPMI, FBS
ELISA kit: Human TNF ELISA kit, Krishgen Biosciences, USA
Anti inflammatory activity was examined using human monocyte/macrophage cell line THP-Monocytes respond to lipopolysaccharides (LPS) by secreting proinflammatory cytokines. Tumour necrosis factor (TNF-α) is one of the principle cytokine which triggers a cascade of inflammatory reactions. The concentration of TNF-α was measured using an Enzyme linked Immunosorbent assay (ELISA). Reduction in TNF-α concentration indicates an anti inflammatory activity of the compound.
1×10^5 THP-1 cells were stimulated with 100 ng with lipopolysacharide (LPS, 0.1 μg/mL) to induce TNF-α secretion. Cells were pre treated with different concentrations of test materials (Thymoquinone, thymohydroquinone and a composition comprising thymohydroquinone) before LPS treatment. The cell supernatants were collected 24 hour after treatment and secreted TNF-α as estimated by cytokine ELISA as described by the manufacturer. Unstimulated cells were used as negative control. The limit of detection was <1 pg/mL.

[6] = Anti-glycation, Ribose-BSA method, vesperlysine-like AGE
Method: (§1) AGEs can be fluorescent as well as non fluorescent in nature. Typically the vesperlysine type of AGE have an excitation at 370-nm and emission at 440 nm, while pentosidine like AGE have an excitation at 335 nm and emission at 385 nm. The principle is based on the fact that ribose sugar and bovine serum albumin are mixed in specific ratio and incubated for 24 hours. Vesperlysine like AGE formed by the reaction was e estimated by the increase in fluorescence detected, at Ex/Em at 390/460 nm and pentosidines were detected at Ex/Em at 320/405 nm
(§2) Ribose—BSA method: 10 μl of various concentrations of samples were added to 40 μl of BSA (bovine serum albumin, 25 mg/ml stock) and 50 μl of D-Ribose (150 mg/ml stock) was added per well of black 96-well microplate and incubated for 24 h at 37° C. BSA was taken as the control. The AGEs (advanced glycation end product) formed were detected by the fluorescence at Ex/Em at 390/460 nm for vesperlysine and Ex/Em at 320/405 nm for pentosidine AGE.

[7] = Anti-glycation, Ribose-BSA method, pentosidine AGE
Method: as §1, §2

T1 sequence (P53341 whole entry): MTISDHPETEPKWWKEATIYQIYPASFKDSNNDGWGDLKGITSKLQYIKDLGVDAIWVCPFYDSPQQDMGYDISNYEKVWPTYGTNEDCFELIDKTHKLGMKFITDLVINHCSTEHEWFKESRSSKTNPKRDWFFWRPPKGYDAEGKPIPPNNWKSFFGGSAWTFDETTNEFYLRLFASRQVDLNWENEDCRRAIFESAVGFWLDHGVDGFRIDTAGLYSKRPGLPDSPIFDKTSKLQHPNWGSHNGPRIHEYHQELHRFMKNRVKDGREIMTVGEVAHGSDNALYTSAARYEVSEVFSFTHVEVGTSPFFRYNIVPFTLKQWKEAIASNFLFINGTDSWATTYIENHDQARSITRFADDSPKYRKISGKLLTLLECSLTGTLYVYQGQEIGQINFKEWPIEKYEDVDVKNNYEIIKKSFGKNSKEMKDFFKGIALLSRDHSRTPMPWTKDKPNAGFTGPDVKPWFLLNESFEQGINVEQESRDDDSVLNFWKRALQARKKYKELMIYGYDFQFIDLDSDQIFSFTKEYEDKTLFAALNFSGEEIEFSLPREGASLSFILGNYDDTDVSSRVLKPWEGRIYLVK

For `Cc1cc(O)c(C(C)C)cc1O` [Thymohydroquinone, thymohydroquinone], the IC50 [1] was 433 µM, the “glucose uptake in Muscle cells” value [2] was “enhanced glucose uptake” and the “glucose uptake in Adipocytes” value [3] was “enhanced glucose uptake”. The “IC50 of DPPH scavenging” value [4] was 1.78 µg/mL, the inhibition at 0.03 µg/mL [5] was 2.5% and the inhibition at 0.06 µg/mL [5] was 4.5%. For the same molecule, the inhibition at 0.13 µg/mL [5] was 11.9%, the cell viability ([5]; THP-1 cells in the TNF-α test) was “without affecting the cell viability” and the “IC50, inhibition of vesperlysine Ex/Em at 390/460 nM” value [6] was 108.30 µg/mL. The “% inhibition of vesperlysine Ex/Em at 390/460 nm” value (from here on “% inhibition … at 390/460 nm”) ([6]; 15.63 μg/mL) was 23.03%, the “% inhibition … at 390/460 nm” value ([6]; 31.25 μg/mL) was 34.06% and the “% inhibition … at 390/460 nm” value ([6]; 62.5 μg/mL) was 43.83%. For the same molecule, the “% inhibition … at 390/460 nm” value ([6]; 125 μg/mL) was 52.28%, the “% inhibition … at 390/460 nm” value ([6]; 250 μg/mL) was 60.42% and the “IC50, Inhibition of pentosidine Ex/Em at 320/405 nM” value [7] was 65.89 µg/mL. For the same molecule, the “% Inhibition of pentosidine Ex/Em at 320/405 nm” value (from here on “% Inhibition … at 320/405 nm”) ([7]; 15.63 μg/mL) was 5.39%, the “% Inhibition … at 320/405 nm” value ([7]; 31.25 μg/mL) was 28.73% and the “% Inhibition … at 320/405 nm” value ([7]; 62.5 μg/mL) was 49.55%. The “% Inhibition … at 320/405 nm” value ([7]; 125 μg/mL) was 68.33% and the “% Inhibition … at 320/405 nm” value ([7]; 250 μg/mL) was 89.31%.

`CC1=CC(=O)C(C(C)C)=CC1=O` [Thymoquinone, thymoquinone, reference compound] showed an IC50 [1] of 2480 µM, an inhibition at 0.03 µg/mL [5] of 22% and an inhibition at 0.06 µg/mL [5] of 31%. For the same molecule, the inhibition at 0.13 µg/mL [5] was 35%, the “IC50, inhibition of vesperlysine Ex/Em at 390/460 nM” value [6] was 157.80 µg/mL and the “% inhibition … at 390/460 nm” value ([6]; 15.63 μg/mL) was 0%. The “% inhibition … at 390/460 nm” value ([6]; 31.25 μg/mL) was 38.55%, the “% inhibition … at 390/460 nm” value ([6]; 62.5 μg/mL) was 40.81% and the “% inhibition … at 390/460 nm” value ([6]; 125 μg/mL) was 44.54%. The “% inhibition … at 390/460 nm” value ([6]; 250 μg/mL) was 56.69%, the “IC50, Inhibition of pentosidine Ex/Em at 320/405 nM” value [7] was 142.70 µg/mL and the “% Inhibition … at 320/405 nm” value ([7]; 15.63 μg/mL) was 0%. For the same molecule, the “% Inhibition … at 320/405 nm” value ([7]; 31.25 μg/mL) was 23.59%, the “% Inhibition … at 320/405 nm” value ([7]; 62.5 μg/mL) was 0.06% and the “% Inhibition … at 320/405 nm” value ([7]; 125 μg/mL) was 44.57%. For the same molecule, the “% Inhibition … at 320/405 nm” value ([7]; 250 μg/mL) was 61.80%.
